Assay: In vitro release rate modulation across electrostatically gated nanofluidic membrane
Conditions: active phases, gate voltage −1.5 V, vs passive phases (0 V); sink 0.01×PBS
Description: Release modulation experiments were performed with a custom made, two reservoirs fixture comprising of a macro cuvette (sink reservoir) and a drug reservoir. The cuvette was glued with UV epoxy (OG116, Epoxy Technologies, Inc.) to a PMMA (McMaster Carr, Douglasville, Ga.) membrane holder. The drug reservoir (500 μL capacity), made of PMMA, was secured to the membrane holder through 2 SS316L M3 screws. The membrane under testing was clamped between the two PMMA pieces, with 2 O-rings (2418T113, McMaster Carr, Douglasville, Ga.) to avoid solution leakage. The reservoir was capped with a silicone plugs (9277K87, McMaster Carr, Douglasville, Ga.).
Release modulation experiments were performed using 300 nm membranes with both poly-Si and SiC deposition. […]
The assembled diffusion fixtures were then loaded in a robotic carousel^20, which is connected to a Cary 50 UV-vis spectrophotometer (Agilent Technologies). Absorbance measurements of the sink reservoir were automatically performed every 5 minutes. […]
Graphs were plotted and statistical data analyses were performed with GraphPad Prism 8 (version 8.1.1; GraphPad Software, Inc., La Jolla, Calif.). […] Statistical significance was determined using paired t-tests. […]

Alexa Fluor 647 [AF647]
reduction of release rate: 60%
